The supplement of paper PMC10627819

How the values were obtained:
S. aureus DSM 20231 [1] = assay: fitness (endpoint OD595 vs no drug) (fraction); higher = more growth
Outline: (§1)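 Plates with 384 wells were inoculated at OD595 0.01 using 30 µl of TSB, LB Lennox or CY, or 55 µl for S. pneumoniae. Incubation was at 37 °C, with OD595 measured every 30 min for 14 h. Fitness is the stationary-phase transition optical density over the robust mean of no-drug control wells, after first-reading background subtraction; it is capped at 1.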

S. aureus Newman [2] = assay: as above
Outline: as §1

B. subtilis 168 [3] = assay: Bliss interaction score (quartile over a dose matrix) (fitness difference); higher = more antagonism (negative = synergy)
Outline: (§2)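 Fitness was OD595 at entry into stationary phase divided by the plate's robust no-drug mean and capped at 1; single-drug fitness was inferred from combination data. The Bliss score is observed minus expected (product) fitness, summarised by quartiles over technical, biological and donor/recipient replicates.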

S. aureus DSM 20231 [4] = assay: as above
Outline: as §2

S. aureus Newman [5] = assay: as above
Outline: as §2

S. pneumoniae D39V [6] = assay: as above
Outline: as §2

B. subtilis 168 [7] = assay: fitness (endpoint OD595 vs no drug) (fraction); higher = more growth; conditions: one replicate
Outline: as §1

S. pneumoniae D39V [8] = assay: as above
Outline: as §1
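Throughout, for Bliss interaction score (quartile over a dose matrix): first quartile when negative (synergy) and third quartile when positive (antagonism).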

CN[C@@H]1[C@H](O)[C@H](NC)[C@H]2O[C@@]3(O)C(=O)C[C@@H](C)O[C@H]3O[C@@H]2[C@H]1O [Spectinomycin] + CCCCCCCCCC(=O)N[C@@H]1[C@H]([C@@H]([C@H](O[C@H]1OC2=C3C=C4C=C2OC5=C(C=C(C=C5)[C@H]([C@H]6C(=O)N[C@@H](C7=C(C(=CC(=C7)O)OC8[C@H]([C@H]([C@@H]([C@H](O8)CO)O)O)O)C9=C(C=CC(=C9)[C@H](C(=O)N6)NC(=O)[C@@H]4NC(=O)[C@@H]1C2=CC(=CC(=C2)OC2=C(C=CC(=C2)[C@H](C(=O)N[C@H](CC2=CC(=C(O3)C=C2)Cl)C(=O)N1)N)O)O)O)C(=O)O)O[C@H]1[C@@H]([C@H]([C@@H]([C@H](O1)CO)O)O)NC(=O)C)Cl)CO)O)O [Teicoplanin]
fitness, main component drawn
Conditions | first compound 4 µg/mL | first compound 8 µg/mL | first compound 16 µg/mL
S. aureus DSM 20231 [1], partner 0.1562 µg/mL | 0.938 | ≥ 1 | 0.889
S. aureus DSM 20231 [1], partner 0.3125 µg/mL | 0.962 | 0.969 | 0.919
S. aureus DSM 20231 [1], partner 0.625 µg/mL | ≥ 1 | ≥ 1 | 0.985
S. aureus Newman [2], partner 0.1562 µg/mL | ≥ 1 | ≥ 1 | 0.993
S. aureus Newman [2], partner 0.3125 µg/mL | ≥ 1 | 0.998 | 0.973
S. aureus Newman [2], partner 0.625 µg/mL | 0.817 | 0.705 | 0.831

fitness, one replicate, main component drawn
Conditions | partner 0.1562 µg/mL | partner 0.3125 µg/mL | partner 0.62 µg/mL | partner 0.625 µg/mL | partner 1.24 µg/mL | partner 2.48 µg/mL
S. aureus DSM 20231 [1], first compound 32 µg/mL | 0.788 | 0.834 | – | 0.992 | – | –
S. aureus DSM 20231 [1], first compound 64 µg/mL | 0.0706 | 0.0748 | – | 0.0694 | – | –
S. aureus Newman [2], first compound 4 µg/mL | – | – | 0.792 | – | 0.743 | 0.411
S. aureus Newman [2], first compound 8 µg/mL | – | – | 0.83 | – | 0.68 | 0.505
S. aureus Newman [2], first compound 16 µg/mL | – | – | 0.854 | – | 0.645 | 0.428
S. aureus Newman [2], first compound 32 µg/mL | 0.639 | 0.694 | – | 0.666 | – | –
S. aureus Newman [2], first compound 64 µg/mL | 0.0786 | 0.071 | – | 0.0311 | – | –

main component drawn
Conditions | Bliss interaction score
B. subtilis 168 [3] | 0.138
S. aureus DSM 20231 [4] | 0.0832
S. aureus Newman [5] | 0.0966
S. pneumoniae D39V [6] | -0.0746

CN[C@@H]1[C@H](O)[C@H](NC)[C@H]2O[C@@]3(O)C(=O)C[C@@H](C)O[C@H]3O[C@@H]2[C@H]1O [Spectinomycin] + CN(N=O)C(=O)N[C@@H](C=O)[C@@H](O)[C@H](O)[C@H](O)CO [Streptozotocin]
fitness
Conditions | partner 0.15 µg/mL | partner 0.3 µg/mL | partner 0.6 µg/mL | partner 1.2 µg/mL | partner 2.4 µg/mL | partner 4.8 µg/mL
B. subtilis 168 [7], first compound 2 µg/mL | 0.961 | 0.958 | 0.991 | – | – | –
B. subtilis 168 [7], first compound 4 µg/mL | ≥ 1 | ≥ 1 | ≥ 1 | – | – | –
B. subtilis 168 [7], first compound 8 µg/mL | 0.977 | 0.832 | 0.926 | – | – | –
S. aureus DSM 20231 [1], first compound 4 µg/mL | 0.831 | 0.761 | 0.757 | – | – | –
S. aureus DSM 20231 [1], first compound 8 µg/mL | 0.875 | 0.798 | 0.754 | – | – | –
S. aureus DSM 20231 [1], first compound 16 µg/mL | 0.769 | 0.781 | 0.722 | – | – | –
S. aureus Newman [2], first compound 4 µg/mL | 0.818 | 0.665 | 0.51 | – | – | –
S. aureus Newman [2], first compound 8 µg/mL | 0.812 | 0.631 | 0.478 | – | – | –
S. aureus Newman [2], first compound 16 µg/mL | 0.813 | 0.614 | 0.427 | – | – | –
S. pneumoniae D39V [8], first compound 4 µg/mL | – | – | – | 0.947 | 0.928 | 0.913
S. pneumoniae D39V [8], first compound 8 µg/mL | – | – | – | 0.847 | 0.832 | 0.81

fitness, one replicate
Conditions | partner 0.15 µg/mL | partner 0.3 µg/mL | partner 0.6 µg/mL | partner 1.2 µg/mL | partner 2.4 µg/mL | partner 4.8 µg/mL
S. aureus DSM 20231 [1], first compound 32 µg/mL | 0.674 | 0.696 | 0.686 | – | – | –
S. aureus DSM 20231 [1], first compound 64 µg/mL | 0.0638 | 0.0605 | 0.0885 | – | – | –
S. aureus Newman [2], first compound 32 µg/mL | 0.519 | 0.423 | 0.0868 | – | – | –
S. aureus Newman [2], first compound 64 µg/mL | 0.0732 | 0.067 | 0.0303 | – | – | –
S. pneumoniae D39V [8], first compound 16 µg/mL | – | – | – | 0.764 | 0.841 | 0.686

Conditions | Bliss interaction score
B. subtilis 168 [3] | -0.0285
S. aureus DSM 20231 [4] | 0.0831
S. aureus Newman [5] | -0.046
S. pneumoniae D39V [6] | -0.0505
